Reference: ChEMBL document CHEMBL1201862, “PubChem BioAssay data set” (2004)
Activity calls are given as the source filed them.

Tests used:
[1] = target: Photoreceptor-specific nuclear receptor (Homo sapiens, UniProt Q9Y5X4); type: functional, cell-based;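 further: CHO-S cells with Gal4-NCOR and VP16-NR2E3 two-hybrid luciferase reporter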
[2] = target: T1, Sentrin-specific protease 1 (Homo sapiens, UniProt Q9P0U3); assay: SENP1 catalytic domain blockers, concentration series – biochemical, kinetic FRET, dose response (AID 651697); type: functional; details: read-out: IC50_Mean
[3] = target: T2, RNA-binding protein pos-1 (Caenorhabditis elegans, UniProt G5EF15); assay: disruptors of C. elegans POS-1 RNA interaction – biochemical, fluorescence polarization, dose response (AID 1964);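 further: purified POS-1 fused to maltose binding protein made in E. coli; potency of compounds blocking POS-1 binding to fluorescent RNA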
T2 sequence (G5EF15 whole entry): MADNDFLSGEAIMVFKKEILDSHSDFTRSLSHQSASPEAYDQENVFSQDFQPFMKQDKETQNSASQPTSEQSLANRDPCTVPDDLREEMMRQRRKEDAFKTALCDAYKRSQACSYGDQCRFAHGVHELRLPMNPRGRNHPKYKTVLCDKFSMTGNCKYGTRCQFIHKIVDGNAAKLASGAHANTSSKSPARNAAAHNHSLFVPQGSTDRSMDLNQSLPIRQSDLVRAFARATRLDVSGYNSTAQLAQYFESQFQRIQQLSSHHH

[4] = target: T3, Zinc finger protein mex-5 (Caenorhabditis elegans, UniProt Q9XUB2); assay: potency of MEX-5 RNA-binding blockers – biochemical, C. elegans, fluorescence polarization, dose response (AID 1960)
T3 sequence (Q9XUB2 whole entry): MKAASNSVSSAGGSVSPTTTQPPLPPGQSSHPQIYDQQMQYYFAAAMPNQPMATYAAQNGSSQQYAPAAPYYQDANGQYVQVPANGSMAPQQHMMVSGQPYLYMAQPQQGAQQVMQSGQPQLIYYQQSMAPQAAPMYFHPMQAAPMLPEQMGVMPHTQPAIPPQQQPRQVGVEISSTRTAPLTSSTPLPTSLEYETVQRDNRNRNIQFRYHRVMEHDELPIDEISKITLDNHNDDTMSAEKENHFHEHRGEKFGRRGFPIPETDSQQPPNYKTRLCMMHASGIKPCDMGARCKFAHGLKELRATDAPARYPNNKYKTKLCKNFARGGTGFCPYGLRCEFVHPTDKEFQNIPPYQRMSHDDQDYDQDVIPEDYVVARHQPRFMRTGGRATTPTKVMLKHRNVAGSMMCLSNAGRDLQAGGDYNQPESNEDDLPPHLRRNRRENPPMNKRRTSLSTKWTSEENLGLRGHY

[5] = target: T1, Sentrin-specific protease 1; assay: Dose response confirmation of small molecule inhibitors of the catalytic domain of the SUMO protease, SENP1 in a FRET assay.; type: functional; details: read-out: IC50_Mean
[6] = target: Tyrosine-protein phosphatase non-receptor type 11 (Homo sapiens, UniProt Q06124); assay: PTPN11 enzyme inhibitors – biochemical, selectivity assay for STEP inhibitor project, dose response (AID 602367); type: functional; details: read-out: IC50_Mean
[7] = target: T4, Tyrosine-protein phosphatase non-receptor type 22 (Homo sapiens, UniProt Q9Y2R2); assay: lymphoid phosphatase LYP inhibitors – biochemical, selectivity assay for STEP inhibitor project, dose response (AID 624241); type: functional
T4 sequence (Q9Y2R2 whole entry): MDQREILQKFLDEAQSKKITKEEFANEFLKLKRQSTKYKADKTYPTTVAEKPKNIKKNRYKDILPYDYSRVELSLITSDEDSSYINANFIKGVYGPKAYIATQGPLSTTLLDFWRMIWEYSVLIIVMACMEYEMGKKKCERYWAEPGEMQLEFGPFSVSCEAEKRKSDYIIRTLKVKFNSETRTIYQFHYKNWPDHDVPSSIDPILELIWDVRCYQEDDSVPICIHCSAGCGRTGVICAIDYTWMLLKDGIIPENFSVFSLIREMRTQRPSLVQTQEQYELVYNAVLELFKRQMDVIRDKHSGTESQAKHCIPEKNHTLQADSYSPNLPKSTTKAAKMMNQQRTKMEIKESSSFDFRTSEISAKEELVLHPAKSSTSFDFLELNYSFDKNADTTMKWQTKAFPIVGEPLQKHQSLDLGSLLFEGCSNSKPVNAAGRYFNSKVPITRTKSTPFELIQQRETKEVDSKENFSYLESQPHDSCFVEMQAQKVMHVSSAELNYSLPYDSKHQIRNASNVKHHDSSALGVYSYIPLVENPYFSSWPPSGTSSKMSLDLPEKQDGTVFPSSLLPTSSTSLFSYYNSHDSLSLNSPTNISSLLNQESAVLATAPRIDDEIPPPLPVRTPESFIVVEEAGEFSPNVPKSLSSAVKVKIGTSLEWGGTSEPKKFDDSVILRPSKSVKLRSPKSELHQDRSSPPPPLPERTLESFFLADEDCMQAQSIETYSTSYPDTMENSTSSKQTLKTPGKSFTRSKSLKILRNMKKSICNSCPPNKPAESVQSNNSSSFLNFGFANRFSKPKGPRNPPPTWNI

[8] = target: Dual specificity protein phosphatase 3 (Homo sapiens, UniProt P51452); assay: VHR phosphatase inhibition, dose response, selectivity assay for STEP inhibitor project, biochemical (AID 602374); type: functional; details: read-out: IC50_Mean
[9] = target: Tyrosine-protein phosphatase non-receptor type 5 (Homo sapiens, UniProt P54829); assay: PTPN5 enzyme inhibition – biochemical, fluorescence intensity, uHTS hits, confirmation (AID 602372); type: functional; details: read-out: IC50_Mean
Caspase-3 = target: T5, Caspase-3 (Homo sapiens, UniProt P42574); assay: Dose-response confirmation of uHTS inhibitor hits of Sentrin-Specific Protease 8 in a Caspase-3 Fluorescence assay.; type: functional
T5 sequence (P42574 whole entry): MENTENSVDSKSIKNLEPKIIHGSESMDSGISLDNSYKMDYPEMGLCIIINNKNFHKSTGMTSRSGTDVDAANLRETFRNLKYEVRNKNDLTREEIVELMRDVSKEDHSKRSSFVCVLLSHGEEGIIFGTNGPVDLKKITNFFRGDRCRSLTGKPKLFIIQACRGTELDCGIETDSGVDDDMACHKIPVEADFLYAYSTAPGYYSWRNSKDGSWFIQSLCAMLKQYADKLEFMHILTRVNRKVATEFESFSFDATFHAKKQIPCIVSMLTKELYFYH

[10] = target: T6, Sentrin-specific protease 8 (Homo sapiens, UniProt Q96LD8); type: functional
T6 sequence (Q96LD8 whole entry): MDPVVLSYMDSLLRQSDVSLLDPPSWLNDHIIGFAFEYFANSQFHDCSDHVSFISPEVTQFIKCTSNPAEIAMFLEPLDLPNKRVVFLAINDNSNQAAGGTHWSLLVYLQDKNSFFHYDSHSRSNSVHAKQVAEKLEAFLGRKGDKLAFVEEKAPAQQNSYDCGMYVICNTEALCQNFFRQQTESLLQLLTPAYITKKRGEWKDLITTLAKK

[11] = target: T6, Sentrin-specific protease 8; type: functional; remark: listed apart in the source
[12] = target: Potassium voltage-gated channel subfamily KQT member 2 (Rattus norvegicus, UniProt O88943); assay: blockers of KCNQ2 channel current – cell-based, automated electrophysiology, set II, rat KCNQ2, dose response (AID 588637); type: functional
[13] = activation of miR-122 Renilla sensor silencing – cell-based, Huh7 psiCHECK-miR122, Renilla luciferase, cherry-picked, dose response (AID 651956); type: functional;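 further: huh7 hepatoma cells stably carrying a psiCHECK-2 miR-122 sensor plasmid; renilla luciferase signal reporting endogenous miR-122 activity after 48 h compound exposure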
[14] = Fluorescence-based cell-based high throughput dose response assay for inhibitors of the interaction of nucleotide-binding oligomerization domain containing 2 (NOD2) and the receptor-interacting serine-threonine kinase 2 (RIPK2).; type: functional; details: Homo sapiens
Beta Lactamase = Beta Lactamase (Pseudomonas aeruginosa, UniProt Q932Y6); assay: BLA reporter interference, concentration series – BLA reporter cells, FRET fluorescence, artefact control for NOD2-RIPK2 interaction inhibitor project, dose response (AID 651552); type: functional, cell-based
[15] = loss of viability in HepG2 cells – cell-based, CellTiter-Glo, cherry-picked, cytotoxicity control for Shn3 inhibitor project, dose response (AID 624134); type: functional
Paired box protein Pax-8 = Paired box protein Pax-8 (Homo sapiens, UniProt Q06710); assay: PAX8 transcriptional activity inhibition in RMG-I – RMG-I cells, luciferase, cherry-pick, dose response (AID 687027); type: functional, cell-based;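 further: luciferase reporter driven by Pax8 target thyroperoxidase promoter measured by SteadyGlo luminescence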
[16] = general cell-killing toxicity readout – plate reader, dry powder samples, cytotoxicity control for PAX8 inhibitor project, dose response (AID 743021); type: functional, cell-based
[17] = non-specific 3'UTR reporter inhibition in Clone20-Shn3RL – cell-based, Renilla luciferase, cherry-picked, counter-screen for Shn3 inhibitor project, dose response (AID 624133); type: functional
[18] = reduction of Shn3 3'UTR-driven luciferase in osteoblasts – cell-based, Clone20 osteoblasts, firefly luciferase, cherry-picked, dose response (AID 624132); type: functional;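 further: firefly luciferase luminescence from reporter carrying the Shn3 3'UTR in osteoblasts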
Steroidogenic factor 1 = Steroidogenic factor 1 (Homo sapiens, UniProt Q13285); assay: Counterscreen for inverse agonists of the liver receptor homolog-1 (LRH-1; NR5A2): Luminescence-based cell-based high throughput dose response assay to identify inverse agonists of the Steroidogenic Factor 1 Nuclear Receptor (SF1; NR5A1).; type: functional
[19] = target: Nuclear receptor subfamily 5 group A member 2 (Homo sapiens, UniProt O00482); type: functional, cell-based;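 further: HEK293T cells transfected with LRH-1 and a StAR promoter luciferase reporter; potency for inhibitors that lower LRH-1 driven reporter light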
[20] = nonselective StAR promoter luciferase inhibitors – cell-based, luminescence, luciferase reporter, counter-screen for LRH-1 inverse agonist project, dose response (AID 651969); type: functional
[21] = target: T7, Apoptotic protease-activating factor 1 (Homo sapiens, UniProt O14727); assay: SAR analysis of small molecule Activators of Apaf-1 in a Fluorescent assay.; type: functional; details: read-out: EC50_Mean;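 further: caspase-3 cleavage of fluorogenic Rh110 DEVD substrate downstream of apoptosome activation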
T7 sequence (O14727 whole entry): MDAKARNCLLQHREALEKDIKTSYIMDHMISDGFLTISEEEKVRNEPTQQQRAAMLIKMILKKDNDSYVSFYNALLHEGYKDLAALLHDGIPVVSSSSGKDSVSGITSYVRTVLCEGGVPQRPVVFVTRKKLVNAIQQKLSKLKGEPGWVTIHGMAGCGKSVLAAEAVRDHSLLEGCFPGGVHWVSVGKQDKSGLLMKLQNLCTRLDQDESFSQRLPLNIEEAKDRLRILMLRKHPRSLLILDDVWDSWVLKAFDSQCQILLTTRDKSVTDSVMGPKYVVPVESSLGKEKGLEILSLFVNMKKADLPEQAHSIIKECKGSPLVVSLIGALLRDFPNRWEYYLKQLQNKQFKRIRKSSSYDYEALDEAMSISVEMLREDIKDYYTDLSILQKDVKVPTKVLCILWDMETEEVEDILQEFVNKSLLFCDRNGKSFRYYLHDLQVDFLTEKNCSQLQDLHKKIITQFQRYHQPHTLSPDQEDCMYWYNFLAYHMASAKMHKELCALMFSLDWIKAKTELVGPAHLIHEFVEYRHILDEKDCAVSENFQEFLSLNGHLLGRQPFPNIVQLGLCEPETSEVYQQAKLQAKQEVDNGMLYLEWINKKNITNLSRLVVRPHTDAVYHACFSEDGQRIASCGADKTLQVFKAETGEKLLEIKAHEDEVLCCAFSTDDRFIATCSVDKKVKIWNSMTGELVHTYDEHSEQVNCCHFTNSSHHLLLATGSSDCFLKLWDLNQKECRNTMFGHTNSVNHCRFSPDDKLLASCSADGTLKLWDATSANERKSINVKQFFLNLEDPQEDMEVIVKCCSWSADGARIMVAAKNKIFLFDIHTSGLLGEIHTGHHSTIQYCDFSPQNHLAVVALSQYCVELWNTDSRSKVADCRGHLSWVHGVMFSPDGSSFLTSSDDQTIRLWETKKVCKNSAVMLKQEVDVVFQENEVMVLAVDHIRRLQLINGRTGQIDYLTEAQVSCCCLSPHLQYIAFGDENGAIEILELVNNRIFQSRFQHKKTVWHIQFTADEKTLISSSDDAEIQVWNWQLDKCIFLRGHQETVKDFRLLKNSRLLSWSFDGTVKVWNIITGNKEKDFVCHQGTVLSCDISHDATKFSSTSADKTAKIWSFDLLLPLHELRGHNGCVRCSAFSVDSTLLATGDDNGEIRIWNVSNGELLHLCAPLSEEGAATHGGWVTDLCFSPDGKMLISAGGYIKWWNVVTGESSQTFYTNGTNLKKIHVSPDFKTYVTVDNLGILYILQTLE

[22] = target: Matrix metalloproteinase-14 (Homo sapiens, UniProt P50281); assay: Dose Response confirmation of uHTS hits for a small molecule inhibitors of MT1-MMP activation in a fluorescence assay set 1.; type: functional
[23] = target: ADP-ribosylation factor GTPase-activating protein 1 (Rattus norvegicus, UniProt Q62848); assay: Fluorescence polarization-based biochemical high throughput dose response screening assay to identify inhibitors of ADP-ribosylation factor GTPase activating protein 1 (ARFGAP1).; type: functional
ADP-ribosylation factor GTPase-activating protein 1, sequence (Q62848 whole entry): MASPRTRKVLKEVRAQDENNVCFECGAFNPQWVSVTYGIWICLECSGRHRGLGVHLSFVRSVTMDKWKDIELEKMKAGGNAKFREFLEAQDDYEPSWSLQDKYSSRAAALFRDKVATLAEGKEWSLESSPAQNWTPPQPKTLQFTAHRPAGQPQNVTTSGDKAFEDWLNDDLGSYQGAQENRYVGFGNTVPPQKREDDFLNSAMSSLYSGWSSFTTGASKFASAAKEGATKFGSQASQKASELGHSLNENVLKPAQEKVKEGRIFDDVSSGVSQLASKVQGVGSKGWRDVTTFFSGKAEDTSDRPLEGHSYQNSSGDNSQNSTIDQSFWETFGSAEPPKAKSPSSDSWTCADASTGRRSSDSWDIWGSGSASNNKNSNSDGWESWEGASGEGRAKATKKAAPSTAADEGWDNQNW

T1 sequence (Q9P0U3 whole entry, the tested form may be a part): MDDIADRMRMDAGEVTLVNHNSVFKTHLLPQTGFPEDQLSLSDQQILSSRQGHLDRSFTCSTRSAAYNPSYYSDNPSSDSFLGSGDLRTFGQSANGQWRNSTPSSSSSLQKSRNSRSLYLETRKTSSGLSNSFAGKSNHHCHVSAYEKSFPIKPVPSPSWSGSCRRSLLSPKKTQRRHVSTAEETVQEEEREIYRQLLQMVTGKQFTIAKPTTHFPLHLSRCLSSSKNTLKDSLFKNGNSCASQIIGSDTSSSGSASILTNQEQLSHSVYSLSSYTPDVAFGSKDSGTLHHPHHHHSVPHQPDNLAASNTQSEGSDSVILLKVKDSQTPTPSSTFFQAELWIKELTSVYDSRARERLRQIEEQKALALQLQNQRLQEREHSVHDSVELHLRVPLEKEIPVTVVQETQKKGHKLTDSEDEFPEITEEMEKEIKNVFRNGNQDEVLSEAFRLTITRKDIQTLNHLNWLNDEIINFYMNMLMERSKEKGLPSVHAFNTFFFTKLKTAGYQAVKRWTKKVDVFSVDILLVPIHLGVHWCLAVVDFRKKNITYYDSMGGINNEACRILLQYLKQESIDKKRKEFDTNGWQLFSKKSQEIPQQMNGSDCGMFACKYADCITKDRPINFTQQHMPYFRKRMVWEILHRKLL
Steroidogenic factor 1, sequence (Q13285 whole entry): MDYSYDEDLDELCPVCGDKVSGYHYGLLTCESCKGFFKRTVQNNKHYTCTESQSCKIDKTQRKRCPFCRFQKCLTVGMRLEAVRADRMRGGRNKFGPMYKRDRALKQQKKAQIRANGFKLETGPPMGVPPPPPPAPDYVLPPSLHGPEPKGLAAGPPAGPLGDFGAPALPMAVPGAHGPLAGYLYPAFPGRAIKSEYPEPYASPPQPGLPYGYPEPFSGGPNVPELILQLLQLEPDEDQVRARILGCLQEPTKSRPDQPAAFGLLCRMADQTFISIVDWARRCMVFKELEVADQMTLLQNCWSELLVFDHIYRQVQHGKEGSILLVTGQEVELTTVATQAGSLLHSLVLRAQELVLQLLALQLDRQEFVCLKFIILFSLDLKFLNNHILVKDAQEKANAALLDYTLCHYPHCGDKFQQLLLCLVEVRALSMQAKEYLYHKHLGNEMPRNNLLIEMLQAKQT
Tyrosine-protein phosphatase non-receptor type 11, sequence (Q06124 whole entry): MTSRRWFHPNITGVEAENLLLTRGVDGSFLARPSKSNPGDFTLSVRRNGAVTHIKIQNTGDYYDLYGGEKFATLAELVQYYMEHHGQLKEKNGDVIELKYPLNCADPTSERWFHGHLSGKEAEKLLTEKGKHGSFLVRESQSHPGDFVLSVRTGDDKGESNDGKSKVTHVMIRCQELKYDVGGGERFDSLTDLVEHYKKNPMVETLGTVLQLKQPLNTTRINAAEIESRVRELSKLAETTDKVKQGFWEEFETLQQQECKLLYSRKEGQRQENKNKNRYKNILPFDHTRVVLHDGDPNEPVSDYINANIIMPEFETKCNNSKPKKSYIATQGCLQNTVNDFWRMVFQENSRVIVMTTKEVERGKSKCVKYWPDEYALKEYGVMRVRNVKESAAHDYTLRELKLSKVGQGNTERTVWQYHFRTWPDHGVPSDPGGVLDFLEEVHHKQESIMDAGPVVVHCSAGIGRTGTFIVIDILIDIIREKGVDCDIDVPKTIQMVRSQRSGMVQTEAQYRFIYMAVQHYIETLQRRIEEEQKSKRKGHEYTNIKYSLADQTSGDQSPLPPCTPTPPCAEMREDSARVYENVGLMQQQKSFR
Dual specificity protein phosphatase 3, sequence (P51452 whole entry): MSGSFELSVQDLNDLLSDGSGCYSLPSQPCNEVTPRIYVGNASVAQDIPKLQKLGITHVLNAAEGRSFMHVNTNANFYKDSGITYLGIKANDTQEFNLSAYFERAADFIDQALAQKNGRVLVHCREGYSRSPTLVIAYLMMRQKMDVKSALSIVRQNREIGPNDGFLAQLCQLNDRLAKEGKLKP
Nuclear receptor subfamily 5 group A member 2, sequence (O00482 whole entry): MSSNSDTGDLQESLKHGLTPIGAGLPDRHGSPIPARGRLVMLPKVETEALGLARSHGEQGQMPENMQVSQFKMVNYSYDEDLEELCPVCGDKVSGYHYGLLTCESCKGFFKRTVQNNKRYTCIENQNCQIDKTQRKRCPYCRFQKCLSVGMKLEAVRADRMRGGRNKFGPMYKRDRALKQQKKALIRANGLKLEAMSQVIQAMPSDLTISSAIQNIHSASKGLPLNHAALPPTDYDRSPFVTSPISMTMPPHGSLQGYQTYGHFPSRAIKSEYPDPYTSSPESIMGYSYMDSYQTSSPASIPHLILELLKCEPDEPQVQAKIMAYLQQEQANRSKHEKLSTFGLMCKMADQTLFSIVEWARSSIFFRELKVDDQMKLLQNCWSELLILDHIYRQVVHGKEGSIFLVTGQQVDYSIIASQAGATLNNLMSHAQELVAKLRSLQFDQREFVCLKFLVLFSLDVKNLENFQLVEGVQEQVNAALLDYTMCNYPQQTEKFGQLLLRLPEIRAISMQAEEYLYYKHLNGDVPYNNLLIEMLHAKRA
Photoreceptor-specific nuclear receptor, sequence (Q9Y5X4 whole entry, the tested form may be a part): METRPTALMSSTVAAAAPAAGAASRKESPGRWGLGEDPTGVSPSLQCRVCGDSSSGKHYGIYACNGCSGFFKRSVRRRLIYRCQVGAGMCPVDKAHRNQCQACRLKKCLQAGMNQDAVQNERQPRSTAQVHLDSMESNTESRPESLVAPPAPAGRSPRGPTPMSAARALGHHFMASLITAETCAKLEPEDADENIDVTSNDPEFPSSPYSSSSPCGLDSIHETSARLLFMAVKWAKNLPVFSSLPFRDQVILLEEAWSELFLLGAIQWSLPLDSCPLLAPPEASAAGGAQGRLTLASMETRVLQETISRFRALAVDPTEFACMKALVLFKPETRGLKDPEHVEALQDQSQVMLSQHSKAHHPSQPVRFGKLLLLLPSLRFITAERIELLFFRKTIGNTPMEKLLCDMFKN
Potassium voltage-gated channel subfamily KQT member 2, sequence (O88943 whole entry): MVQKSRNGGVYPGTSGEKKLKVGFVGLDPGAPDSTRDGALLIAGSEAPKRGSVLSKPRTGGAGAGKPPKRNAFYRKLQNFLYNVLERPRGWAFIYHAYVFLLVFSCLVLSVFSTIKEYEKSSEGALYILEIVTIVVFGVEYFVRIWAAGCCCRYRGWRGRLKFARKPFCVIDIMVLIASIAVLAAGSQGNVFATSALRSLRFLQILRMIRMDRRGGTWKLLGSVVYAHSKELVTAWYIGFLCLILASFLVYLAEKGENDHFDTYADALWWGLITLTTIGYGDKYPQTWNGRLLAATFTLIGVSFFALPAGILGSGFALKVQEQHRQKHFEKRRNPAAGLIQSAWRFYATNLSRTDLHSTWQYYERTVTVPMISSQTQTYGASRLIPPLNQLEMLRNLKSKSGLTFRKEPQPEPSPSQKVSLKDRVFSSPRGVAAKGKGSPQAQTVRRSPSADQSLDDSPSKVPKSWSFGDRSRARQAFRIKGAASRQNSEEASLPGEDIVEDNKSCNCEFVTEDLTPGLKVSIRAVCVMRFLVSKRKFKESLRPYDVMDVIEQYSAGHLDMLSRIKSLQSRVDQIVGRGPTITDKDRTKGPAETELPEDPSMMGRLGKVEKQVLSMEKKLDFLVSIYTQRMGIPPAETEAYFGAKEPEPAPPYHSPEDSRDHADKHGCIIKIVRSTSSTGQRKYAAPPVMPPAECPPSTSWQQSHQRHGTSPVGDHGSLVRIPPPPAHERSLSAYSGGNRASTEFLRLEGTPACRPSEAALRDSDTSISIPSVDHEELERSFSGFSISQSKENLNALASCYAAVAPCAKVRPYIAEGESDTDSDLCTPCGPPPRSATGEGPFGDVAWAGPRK
Tyrosine-protein phosphatase non-receptor type 5, sequence (P54829 whole entry): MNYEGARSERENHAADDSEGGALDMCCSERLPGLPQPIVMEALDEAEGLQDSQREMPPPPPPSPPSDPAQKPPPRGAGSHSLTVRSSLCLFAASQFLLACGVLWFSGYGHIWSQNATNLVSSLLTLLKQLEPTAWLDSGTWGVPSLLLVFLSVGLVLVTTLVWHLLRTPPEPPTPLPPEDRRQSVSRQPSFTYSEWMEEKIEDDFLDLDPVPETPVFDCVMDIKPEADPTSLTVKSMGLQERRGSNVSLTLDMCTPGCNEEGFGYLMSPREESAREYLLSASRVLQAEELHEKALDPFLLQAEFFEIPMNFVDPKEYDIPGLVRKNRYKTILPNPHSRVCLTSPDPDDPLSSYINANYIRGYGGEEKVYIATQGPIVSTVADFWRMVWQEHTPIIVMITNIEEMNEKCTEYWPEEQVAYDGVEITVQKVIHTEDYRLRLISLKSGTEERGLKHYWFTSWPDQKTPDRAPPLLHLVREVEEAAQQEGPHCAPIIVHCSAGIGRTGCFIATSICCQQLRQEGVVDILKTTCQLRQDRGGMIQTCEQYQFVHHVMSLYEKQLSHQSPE
Beta Lactamase, sequence (Q932Y6 whole entry): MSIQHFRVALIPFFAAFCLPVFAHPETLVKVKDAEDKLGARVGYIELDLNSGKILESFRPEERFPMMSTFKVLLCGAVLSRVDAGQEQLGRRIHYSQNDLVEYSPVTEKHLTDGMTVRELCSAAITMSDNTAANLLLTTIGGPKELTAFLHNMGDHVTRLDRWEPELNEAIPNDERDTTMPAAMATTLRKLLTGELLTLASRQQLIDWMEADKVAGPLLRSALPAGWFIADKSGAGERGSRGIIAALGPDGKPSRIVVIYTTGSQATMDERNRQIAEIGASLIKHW

## Cc1noc(C)c1S(=O)(=O)Nc1ccc(C(=O)N2CCN(c3ccc(Cl)cc3)CC2)cc1
[1]
  IC50: 11.7 µM (inactive)

## CC(C)CNC(=O)c1ccc(C2SCC(=O)N2Cc2ccccc2)cc1 (configuration not stated)
[2]
  IC50: 21.5 µM (inactive)
[3]
  EC50: > 300 µM (not active)
[4]
  EC50: > 300 µM (not active)
[5]
  IC50: 16.7 µM (active)

## CN(C)c1ccc(C(=S)N2CCN(Cc3ccccc3)CC2)cc1
[6]
  IC50: 3.25 µM (active)
[7]
  IC50: 45.6 µM (inactive)
[8]
  IC50: 0.937 µM (active)
[9]
  IC50: 23.6 µM (inactive)

## COc1ccc2c(c1)Cc1sc(NC(=O)c3cccnc3)nc1-2
Caspase-3
  IC50: 29.2 µM (active)
[10]
  IC50: 7.97 µM (active)
[11]
  IC50: 3.66 µM (active)

## CCN(CC)S(=O)(=O)c1ccc(N2CCOCC2)c(NC(=S)NC(=O)c2ccco2)c1
[12]
  IC50: 0.824 µM (active)

## CCCC(NS(=O)(=O)c1ccc(Br)cc1)C(=O)O (configuration not stated)
[13]
  AC50: 1.68 µM (active)

## C=C1C(=O)C23C(O)C1CCC2C12CCCC(C)(COC(C)=O)C1C(O)C3(O)OC2 (configuration not stated)
[14]
  IC50: 1.19 µM (active)
Beta Lactamase
  IC50: 22.1 µM (inactive)
[15]
  AC50: 11.8 µM (active)
Paired box protein Pax-8
  AC50: 1.86 µM (active)
[16]
  AC50: 28.9 µM (active)
[17]
  AC50: 3.84 µM (active)
[18]
  AC50: 0.771 µM (active)

## COc1ccc(OCCNC(=O)C2(C)CCN2Cc2ccc3ccccc3c2)cc1 (configuration not stated)
Steroidogenic factor 1
  IC50: 6.42 µM (active)
[19]
  IC50: 9.8 µM (active)
[20]
  IC50: 35.9 µM (inactive)

## O=C(NCCCN1CCOCC1)C1CC(c2ccc(F)cc2)=NO1 (configuration not stated)
[21]
  EC50: > 100 µM (inactive)

## CCOC(=O)C1=C(C)N=c2s/c(=C\c3ccc(OC(C)=O)c(OCC)c3)c(=O)n2C1/C=C/c1ccccc1 (configuration not stated)
[22]
  IC50: 6 µM (active)

## O/N=C\c1ccc2noc(-c3ccc(Cl)cc3)c2c1
[23]
  IC50: 50.7 µM (inactive)
